Values after ≈ are worked out from the molar mass of the structure shown.
Test system: S. pyogenes iMLS resistante strain
Assay: MIC by broth dilution (NCCLS M7-A2), S. pyogenes iMLS resistant strain
Format: cell-based
Conditions: MIC = concentration showing 90% growth inhibition, tested range 64 to 0.125 μg/ml
Experimental: Final concentration of test substances were in range from 64 to 0.125 μg/ml. MIC levels for all compound were determinated on panel of susceptible and resistant Gram positive bacterial strains (S. aureus, S. pneumoniae and S. pyogenes) and on Gram negative strains (E. coli, H. influenzae, E. faecalis, M. catarrhalis).

| SMILES | MIC |
| --- | --- |
| CCC1OC(=O)C(C)C(OC2CC(C)(OC)C(O)C(C)O2)C(C)C(OC2OC(C)CC(N(C)C)C2O)C(C)(O)CC(C)CN(C(=O)Nc2ccc(S(N)(=O)=O)cc2)C(C)C(O)C1(C)O (centres unmarked) [Example 3, 9-Deoxo-9-dihydro-9a-N-{[4-(aminosulfonyl)phenyl]carbamoyl}-9a-aza-9a-homoerithromycin A] | 2 µg/mL (≈ 2.14 µM) |
| CCC1OC(=O)C(C)C(OC2CC(C)(OC)C(O)C(C)O2)C(C)C(OC2OC(C)CC(N(C)C)C2O)C(C)(O)CC(C)CN(C(=O)Nc2ccc(S(=O)(=O)Nc3ccccc3)cc2)C(C)C(O)C1(C)O (centres unmarked) [Example 4, 9-Deoxo-9-dihydro-9a-N-{N′-[4-(phenylaminosulfonyl)phenyl]carbamoyl}-9a-aza-9a-homoerithromycin A] | 2 µg/mL (≈ 1.98 µM) |

— patent publication US7365056B2, “Substituted 9a-N-(N′-(sulfonyl)phenylcarbamoyl)derivatives of 9-deoxo-9-dihydro-9a-aza-9a-homoerithomycin A and 5-0-desosaminyl-9-deoxo-9-dihydro-9-a-aza-9a-homoerithronolide A” (GlaxoSmithKline istrazivacki centar Zagreb d.o, priority 2002, dated 2008)
